This is an account of results in patent US20260364080A1, “PYRAZOLO-PYRIMIDINONE COMPOUNDS FOR USE IN METHODS OF INHIBITING WEE1 A KINASE” (Acrivon Therapeutics, Inc., priority 2023, published 2026).

The target in experiment [1] is T1, Wee1A kinase (CDK1 Tyr15 phosphorylation in ACHN renal cell carcinoma cells) (Homo sapiens, UniProt P30291).
T1 construct: pCDK1 Tyr15 immunofluorescence read-out
Kind of experiment: High-content imaging of pCdk1 Y15, Wee1A kinase target engagement in ACHN cells. In kind it is cell-based. The conditions noted are these: 4 h treatment, nuclear positivity for pCdk1 Y15 vs DMSO control, read-out: CDK1 Tyr15 Phosphorylation EC50. In outline:
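ACHN cells exposed to compound for 4 h over 7–5,000 nM or 0.3–200 nM, then fixed and immunostained for pCDK1 Y15 with DAPI nuclear counterstain. The percentage of pCdk1 Y15 nucleus-positive cells relative to DMSO control was imaged per well; EC50 from dose-response curves.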

A further experiment deals with DAOY cells. As to the kind of experiment: Cell Titer Glo viability assay, DAOY cells. In kind it is cell-based. The conditions noted are these: Homo sapiens, 144 h, absolute EC50. As for the experimental part:
(§1) Each of an ACHN renal cell carcinoma cell line (ATCC) and a DAOY medulloblastoma cell line, and an A427 lung cancer line were cultured in Minimum Essential Medium Eagle supplemented with 10% fetal calf serum (Sigma), 1% Penicillin-Streptomycin and 10 mM HEPES buffer (HyClone). Cell cultures were kept in a humidified incubator at 37 °C and 5% CO2. Cells were routinely tested for Mycoplasma contamination.
(§2) ACHN cells, DAOY cells, or A427 cells were seeded at a density of 400, 250, or 500 cells per well respectively, in tissue culture treated 384 well plates (Corning Costar). After overnight incubation, cells were treated with drugs at concentrations ranging from 17 to 10 000 nM. Viability compared to untreated control was assessed at 144 h using Cell Titer Glo assay 2.0 (Promega). […] “NT” means the compounds was not tested in the indicated cells.

The subject of another experiment is ACHN cells. Kind of experiment: Cell Titer Glo viability assay, ACHN cells. In kind it is cell-based. The conditions noted are these: Homo sapiens, 144 h, absolute EC50. In a few lines:
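Cells grown in MEM with 10% FCS were seeded at 500 (A427), 400 (ACHN) or 250 (DAOY) per well and treated the next day with compound at 17 to 10 000 nM. Viability relative to untreated control was read at 144 h by CellTiter-Glo 2.0.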

Experiment [2] addresses T2, Myt1 kinase (CDK1 Thr14 phosphorylation in ACHN renal cell carcinoma cells) (Homo sapiens, UniProt Q99640).
T2 construct: pCDK1 Thr14 AlphaLISA read-out
T2 sequence (Q99640 1-499): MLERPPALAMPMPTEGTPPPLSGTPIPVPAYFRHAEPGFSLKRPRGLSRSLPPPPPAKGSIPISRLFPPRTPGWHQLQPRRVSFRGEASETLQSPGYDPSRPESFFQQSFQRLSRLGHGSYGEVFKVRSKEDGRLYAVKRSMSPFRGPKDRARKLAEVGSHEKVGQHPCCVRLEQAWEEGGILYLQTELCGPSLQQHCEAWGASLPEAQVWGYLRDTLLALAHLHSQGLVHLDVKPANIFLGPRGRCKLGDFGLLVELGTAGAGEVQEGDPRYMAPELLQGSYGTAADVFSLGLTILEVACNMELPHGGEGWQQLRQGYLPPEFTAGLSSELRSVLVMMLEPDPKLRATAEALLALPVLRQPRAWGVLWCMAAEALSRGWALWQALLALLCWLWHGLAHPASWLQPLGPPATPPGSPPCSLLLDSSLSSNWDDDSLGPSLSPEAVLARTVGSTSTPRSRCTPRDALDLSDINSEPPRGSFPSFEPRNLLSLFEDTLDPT
As to the kind of experiment: AlphaLISA assay, Myt1 kinase target engagement (phospho-CDK1 Thr14) in ACHN cells. Particulars: ACHN cells (marked *); 4 h treatment. In kind it is cell-based. In outline: (§3)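 Cells seeded at 10,000 (DAOY) or 20,000 (ACHN) per well, treated 24 h later for 4 h with compound at 7–5000 nM. Lysates analysed by AlphaLISA SureFire Ultra phospho-CDK1 (Thr14) with donor/acceptor beads; EC50 from dose-response curves.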

For experiment [3], the target named is T3, Myt1 kinase (recombinant PMYT-1) (Homo sapiens, UniProt Q99640).
T3 construct: full length PMYT-1 was expressed by baculovirus in insect cells; purchased Invitrogen A30984; host or cells: insect cells (baculovirus)
T3 sequence (Q99640 1-499): T2 sequence (Q99640 1-499)
As to the kind of experiment: Myt1 kinase binding assay (LanthaScreen Eu Kinase Binding Assay). Particulars: 3 nM tracer 178, 2.5 nM PMYT-1, 1 nM Eu-labeled antibody; read-out: Myt1 kinase Binding IC50. In outline: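 The binding affinity of compounds for Myt1 kinase was measured with a LanthaScreen Europium (Eu) Kinase Binding Assay, a time-resolved FRET format in which test compounds compete against a labeled kinase tracer, and the results were expressed as IC50 values describing compound binding to Myt1.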

Experiment [4] concerns the target T4, recombinant human Wee1A kinase (Homo sapiens, UniProt P30291).
T4 construct: full length Wee1 kinase was expressed by baculovirus in insect cells; purchased Invitrogen PV3817; host or cells: insect cells (baculovirus)
As to the kind of experiment: Wee1A kinase binding assay (LanthaScreen Eu time-resolved FRET). Particulars: 30 nM tracer 178, 5 nM Wee1A kinase, 2 nM Eu-labeled antibody; 60 minutes at room temperature; read-out: Wee1A kinase Binding IC50. In a few lines: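 Full-length, baculovirus-expressed GST-tagged Wee1A (5 nM) was mixed with 2 nM Eu-anti-GST antibody, 30 nM kinase tracer 178 and compound (1% DMSO). Buffer was 50 mM HEPES pH 7.5, 10 mM MgCl2, 1 mM EGTA, 0.01% Brij-35, incubated 60 min at room temperature. TR-FRET 665/615 nm emission ratios from duplicates were curve-fitted.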

Another experiment concerns A427 cells. Kind of experiment: Cell Titer Glo viability assay, A427 cells. The class given is cell-based. The conditions noted are these: Homo sapiens, A-427, 144 h, absolute EC50. As for the experimental part: as §1, §2
Experiment [5] addresses T5, Myt1 kinase (CDK1 Thr14 phosphorylation in DAOY medulloblastoma cells) (Homo sapiens, UniProt Q99640).
T5 construct: pCDK1 Thr14 AlphaLISA read-out
T5 sequence (Q99640 1-499): T2 sequence (Q99640 1-499)
Kind of experiment: AlphaLISA assay, Myt1 kinase target engagement (phospho-CDK1 Thr14) in DAOY cells. In kind it is cell-based. Particulars: 4 h treatment, read-out: CDK1 Thr14 Phosphorylation EC50. In outline:
as §3

The test system of experiment [6] is RAS/TP53 mutated metastatic colorectal cancer. Particulars: cited from earlier work.
A further experiment concerns uterine serous carcinoma. Particulars: phase II study, women with uterine serous carcinoma; cited from earlier work.

Where only a bound is given, the exact number is not on record here.

T1 sequence (P30291 whole entry): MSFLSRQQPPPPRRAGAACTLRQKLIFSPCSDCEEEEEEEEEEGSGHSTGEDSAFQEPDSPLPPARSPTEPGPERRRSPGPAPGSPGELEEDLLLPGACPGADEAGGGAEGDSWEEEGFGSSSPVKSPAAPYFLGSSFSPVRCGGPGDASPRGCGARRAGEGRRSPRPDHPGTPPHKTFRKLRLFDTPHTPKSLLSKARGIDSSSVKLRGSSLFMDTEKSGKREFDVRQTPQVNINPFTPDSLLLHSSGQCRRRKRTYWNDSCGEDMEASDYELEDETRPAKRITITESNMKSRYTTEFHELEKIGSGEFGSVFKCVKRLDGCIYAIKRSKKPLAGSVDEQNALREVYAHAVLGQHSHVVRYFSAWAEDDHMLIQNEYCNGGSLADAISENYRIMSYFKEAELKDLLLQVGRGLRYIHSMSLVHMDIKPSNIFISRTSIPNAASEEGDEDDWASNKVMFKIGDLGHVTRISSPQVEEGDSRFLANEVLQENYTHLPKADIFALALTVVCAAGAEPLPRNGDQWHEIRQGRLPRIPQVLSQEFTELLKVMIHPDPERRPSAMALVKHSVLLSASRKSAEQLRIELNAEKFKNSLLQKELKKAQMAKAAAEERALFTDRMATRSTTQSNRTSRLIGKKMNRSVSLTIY
T4 sequence (P30291 whole entry): as above

As to `CCn1c(=O)c2cnc(Nc3ccc4c(cnn4C)c3)nc2n1-c1cccc(OC2CCN(C)CC2)n1` [Compound 114, 2-ethyl-6-(1-methyl-1H-indazol-5-ylamino)-1-[6-(1-methyl-4-piperidyloxy)-2-pyridyl]-1,2-dihydro-3H-1,2,5,7-tetraazainden-3-one], the EC50 in experiment [1] is below 100 nM; with DAOY cells, at most 100 nM; in the experiment with ACHN cells, at most 100 nM; in experiment [2], 500 to 1000 nM; with A427 cells, 100 to 500 nM. The results for the IC50 in experiment [3] and in [4] were 20 to 100 nM and below 10 nM, respectively.
`C=CCn1c(=O)c2cnc(Nc3ccc(OCCF)cc3)nc2n1-c1cccc(OC2CCNCC2)n1` [Compound 233, 2-allyl-6-((4-(2-fluoroethoxy)phenyl)amino)-1-(6-(piperidin-4-yloxy)pyridin-2-yl)-1,2-dihydro-3H-pyrazolo[3,4-d]pyrimidin-3-one]: the EC50 in [1] was below 100 nM; with DAOY cells, at most 100 nM; with ACHN cells, at most 100 nM; in experiment [5] it was 200 to 500 nM; in the experiment with A427 cells, at most 100 nM. Further, the IC50 in experiment [3] is 20 to 100 nM; in experiment [4], below 10 nM.
`C=CCn1c(=O)c2cnc(Nc3ccc4c(c3)ncn4C)nc2n1-c1cccc(OC2CCN(C)CC2)n1` [Compound 211, 2-allyl-6-(1-methyl-1H-1,3-benzimidazol-5-ylamino)-1-[6-(1-methyl-4-piperidyloxy)-2-pyridyl]-1,2-dihydro-3H-1,2,5,7-tetraazainden-3-one]: the EC50 in [1] is below 100 nM; in the experiment on DAOY cells it was at most 100 nM; in the experiment with ACHN cells, at most 100 nM; in [5], below 200 nM; in the experiment with A427 cells it was at most 100 nM. Moreover, the figures for the IC50 in experiment [3] and in [4] were 20 to 100 nM and below 10 nM, respectively.
Consider `C=CCn1c(=O)c2cnc(Nc3ccc(N4CCN(C)CC4)cc3)nc2n1-c1cccc(C(C)(C)O)n1` [AZD1775, adavosertib], for which the “effect compared to active monitoring” value in experiment [6] is “shown effect compared to active monitoring”. The clinical activity entry in the experiment with uterine serous carcinoma is on record as “promising results”.
For the compound `C=CCn1c(=O)c2cnc(Nc3ccc(OCCF)cc3)nc2n1-c1cccc(OC2CCN(C)CC2)n1` [Compound 234, 2-allyl-6-((4-(2-fluoroethoxy)phenyl)amino)-1-(6-((1-methylpiperidin-4-yl)oxy)pyridin-2-yl)-1,2-dihydro-3H-pyrazolo[3,4-d]pyrimidin-3-one], the EC50 in experiment [1] was below 100 nM; with DAOY cells, at most 100 nM; in the experiment on ACHN cells, at most 100 nM; in experiment [5] it was below 200 nM; in the experiment with A427 cells it was at most 100 nM. Also, the IC50 in experiment [3] is 20 to 100 nM; in experiment [4] it was below 10 nM.
On to `C=CCn1c(=O)c2cnc(Nc3cccc(C)c3)nc2n1-c1cccc(OC2CCNCC2)n1` [Compound 296, 2-allyl-1-(6-(piperidin-4-yloxy)pyridin-2-yl)-6-(m-tolylamino)-1,2-dihydro-3H-pyrazolo[3,4-d]pyrimidin-3-one], for which the EC50 in experiment [1] is below 100 nM; with DAOY cells it was at most 100 nM; with ACHN cells it was at most 100 nM; in experiment [5] it was 200 to 500 nM; in the experiment with A427 cells, at most 100 nM. The IC50 in experiment [3] is 20 to 100 nM; in experiment [4], below 10 nM.
Take `C=CCn1c(=O)c2cnc(Nc3ccc4c(cnn4C)c3)nc2n1-c1cccc(OC2CCN(C)CC2)n1` [Compound 109, 2-allyl-6-(1-methyl-1H-indazol-5-ylamino)-1-[6-(1-methyl-4-piperidyloxy)-2-pyridyl]-1,2-dihydro-3H-1,2,5,7-tetraazainden-3-one]: the EC50 in experiment [1] is below 100 nM; with DAOY cells, at most 100 nM; in the experiment with ACHN cells it was at most 100 nM; in experiment [5], below 200 nM; in the experiment with A427 cells, at most 100 nM. The IC50 is below 20 nM in experiment [3] and below 10 nM in [4].
As to `C=CCn1c(=O)c2cnc(Nc3ccc(OCC(F)(F)F)cc3)nc2n1-c1cccc(OC2CCN(C)CC2)n1` [Compound 291, 2-allyl-1-[6-(1-methyl-4-piperidyloxy)-2-pyridyl]-6-[p-(2,2,2-trifluoroethoxy)phenylamino]-1,2-dihydro-3H-1,2,5,7-tetraazainden-3-one], the EC50 in experiment [1] was below 100 nM; in the experiment on DAOY cells, at most 100 nM; in the experiment on ACHN cells, at most 100 nM; in [5], 200 to 500 nM; in the experiment with A427 cells it was at most 100 nM. Also, the IC50 was 20 to 100 nM in experiment [3] and below 10 nM in experiment [4].
In the case of `C=CCn1c(=O)c2cnc(Nc3cnn(C)c3)nc2n1-c1cccc(OC2CCN(C)CC2)n1` [Compound 137, 2-allyl-1-[6-(1-methyl-4-piperidyloxy)-2-pyridyl]-6-(1-methyl-4-pyrazolylamino)-1,2-dihydro-3H-1,2,5,7-tetraazainden-3-one], the EC50 in experiment [1] was below 100 nM; with ACHN cells, at most 100 nM; in the experiment with A427 cells it was at most 100 nM. Also, the IC50 in experiment [3] is 20 to 100 nM; in [4], below 10 nM.
Turning to `C=CCn1c(=O)c2cnc(Nc3ccc(Cl)cc3)nc2n1-c1cccc(OC2CCN(C)CC2)n1` [Compound 142, 2-allyl-6-((4-chlorophenyl)amino)-1-(6-((1-methylpiperidin-4-yl)oxy)pyridin-2-yl)-1,2-dihydro-3H-pyrazolo[3,4-d]pyrimidin-3-one], the EC50 in experiment [1] was below 100 nM; in the experiment with DAOY cells, 100 to 500 nM; in the experiment on ACHN cells it was at most 100 nM; in [5], 200 to 500 nM; in the experiment on A427 cells, 100 to 500 nM. Besides, the IC50 was below 20 nM in [3] and below 10 nM in experiment [4].
